Assay in all cases: growth of human tumour cells (NCI), 48 h
The test system of test [1] is HOP-62 NSCLC.
Test [2] relates to A549 NSCLC.
For test [3], the system named is HCT-15 colon.
Test [4] concerns HCT-116 colon.
Test [5] relates to PC-3 prostate.
Test [6] deals with CCRF-CEM leukemia.
The test system of test [7] is KM12 colon.
In test [8] the test system is HOP-92 NSCLC.
Test [9] concerns NCI/ADR-RES ovarian.
Test [10] deals with SN12C renal.
Test [11] deals with MDA-N.

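Step 1: Grow cells in 96-well plates. Step 2: Expose to compound for 48 hours at 5 concentrations. Step 3: Interpolate endpoints linearly; if unreached, use highest concentration. TGI: concentration producing complete growth inhibition.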

For the compound `CC(=O)OC/C=C(/C=C/CNC1CCCCC1)OC(C)=O`, the TGI in test [1] is 31.1 µM; in test [2], > 100 µM; in test [3], 37 µM; in [4], 30.5 µM; in test [5], 31.1 µM; in [6], > 100 µM. Further, the TGI is 32.9 µM in [7]; 25.5 µM in [8]; 44.6 µM in test [9]; 32.1 µM in test [10]; 31.9 µM in test [11].

As for `CC1(C(=O)O)CCCC1C(=O)O` (centres undefined), the TGI in test [1], in test [2], in test [3], in test [4], in test [5] and in [6] was > 100 µM throughout. For the same compound, the TGI in test [7], in [8], in test [9], in [10] and in [11] was > 100 µM each time.

With `Brc1cc2nn(-c3ccccc3)nc2c2nonc12`, the TGI in test [1], in [2], in test [3], in test [4], in test [5] and in test [6] was > 100 µM in each case. Also, the TGI in [7], in test [8], in [9], in test [10] and in [11] was > 100 µM throughout.

Take `COCc1nc2c(OC)cc(-c3nc4ccc(N5CCN(C)CC5)cc4[nH]3)c(OC)c2[nH]1`: the TGI in [1], in [2], in test [3], in test [4], in [5] and in test [6] was > 100 µM throughout. Further, the TGI in test [7], in test [8], in test [9], in test [10] and in test [11] was > 100 µM throughout.

`CC(C)(C)c1cc(/C=C(\C#N)C(=O)NCCO)cc(C(C)(C)C)c1O`: the TGI in [1] is 49.6 µM; in test [2], > 100 µM; in [3], 58.6 µM; in test [4], 32.7 µM; in test [5], 46.7 µM; in [6] it was 46.3 µM. Moreover, the TGI in test [7] was 52.7 µM; in test [8], > 100 µM; in test [9], 75.3 µM; in [10], 51.6 µM; in test [11] it was 48.7 µM.

On to `CC1S/C(=N/c2nnc(-c3ccccc3)o2)NC1=O` (centres undefined), for which the TGI in test [1] is > 100 µM; in test [2] it was > 100 µM; in test [3], > 100 µM; in [4], 37.4 µM; in test [5], > 100 µM; in test [6] it was > 100 µM. The TGI in test [7], in test [8], in [9], in [10] and in test [11] was > 100 µM each time.

Consider `COC(=O)c1ccc(C=Nc2ccc(S(N)(=O)=O)cc2)cc1`, for which the TGI in [1] is > 100 µM; in test [2], > 100 µM; in test [3] it was > 100 µM; in test [4], > 100 µM; in [5], > 100 µM; in [6], 83 µM. Also, the TGI in test [7], in [8], in test [9], in test [10] and in [11] was > 100 µM each time.

For the compound `Cn1c([O-])nc(-n2cc[n+](C)c2)cc1=O`, the TGI in [1], in test [2], in [3], in test [4], in [5] and in test [6] was > 100 µM in each case. Besides, the TGI in test [7], in [8], in [9], in test [10] and in [11] was > 100 µM throughout.

`O=c1c2ccccc2nc(Nc2cccc(Cl)c2)n1/N=C/C=C/c1ccccc1`: the TGI in [1] is > 100 µM; in test [2], > 100 µM; in test [3], > 100 µM; in test [4], > 100 µM; in test [5], 97.4 µM; in test [6] it was > 100 µM. Moreover, the TGI in test [7], in test [8], in test [9], in [10] and in test [11] was > 100 µM in each case.

With `COc1ccc2cc(NC(=O)N/N=C\c3ccc(Cl)cc3)ccc2c1`, the TGI in [1], in [2], in test [3], in test [4], in test [5] and in test [6] was > 100 µM throughout. The TGI in [7], in test [8], in test [9], in test [10] and in [11] was > 100 µM throughout.

`CC(=S)N=Cc1c(O)cc(C)oc1=O`: the TGI in test [1], in [2], in [3], in [4], in test [5] and in test [6] was > 100 µM each time. The TGI in test [7], in [8], in [9], in test [10] and in [11] was > 100 µM each time.

Turning to `CSc1nc2c(c(=O)n1C)N=C(c1ccccc1)[C@H](C(CC(=O)c1ccccc1)c1ccccc1)C(c1ccccc1)N2` (some centres undefined), the TGI in test [1], in [2], in [3], in [4], in test [5] and in test [6] was > 100 µM in each case. Also, the TGI in [7], in test [8], in test [9], in [10] and in [11] was > 100 µM throughout.

Regarding `CC1(C)OCC2OC3([C@H]4OC(C)(C)O[C@@H]4CO)OC(C)(C)OC3C2O1` (some centres undefined), the TGI in test [1], in test [2], in [3], in test [4], in test [5] and in test [6] was > 100 µM each time. Moreover, the TGI in [7], in test [8], in [9], in test [10] and in test [11] was > 100 µM each time.

In the case of `OC1(c2ccc(Cl)cc2)c2ccc3ccccc3c2C2=N[C@H]3CCCC[C@@H]3N21` (some centres undefined), the TGI is 11.5 µM in test [1]; > 100 µM in test [2]; 28.3 µM in test [3]; 20.5 µM in test [4]; 51.2 µM in test [5]; 79.9 µM in test [6]. The TGI in test [7] is > 100 µM; in test [8], 77.3 µM; in test [9], 5.99 µM; in test [10] it was > 100 µM; in test [11], > 100 µM.

As for `C=c1c(OC)c(OC)c(O)c2c1=c1cc([N+](=O)[O-])cc(OC)c1=N2`, the TGI in test [1], in test [2], in [3], in test [4], in test [5] and in test [6] was > 100 µM in each case. For the same compound, the TGI in test [7], in test [8], in [9], in test [10] and in test [11] was > 100 µM each time.

For the compound `CCOC(=O)C(NC(=O)CC(C)C)(N1CCN(c2cc3c(cc2F)c(=O)c(C(=O)O)cn3C2CC2)CC1)C(F)(F)F` (centres undefined), the TGI in [1] was > 100 µM; in test [2], > 100 µM; in [3], 22.3 µM; in test [4], 56.2 µM; in test [5] it was 63.7 µM; in test [6], 14 µM. In addition, the TGI in [7] was 39.4 µM; in test [8], 25.3 µM; in test [9], 52.2 µM; in test [10] it was > 100 µM; in test [11] it was 52.3 µM.

For the compound `COC(=O)Cc1c([C@H]2[C@H](CC(=O)OC)c3ccccc3N2C(C)=O)[nH]c2ccccc12`, the TGI in test [1], in test [2], in [3], in test [4], in [5] and in test [6] was > 100 µM each time. Besides, the TGI in [7], in test [8], in [9], in test [10] and in [11] was > 100 µM in each case.

Turning to `NC(N)=NS(=O)(=O)c1ccc(NC(=O)c2ccc3nc4ccccc4c(Nc4ccc(S(=O)(=O)N=C(N)N)cc4)c3c2)cc1`, the TGI in test [1], in [2], in test [3], in test [4], in test [5] and in test [6] was > 100 µM in each case. Also, the TGI in [7], in test [8], in [9], in test [10] and in test [11] was > 100 µM each time.

For `Cc1cn([C@@H]2C[C@H]2CO)c(=O)[nH]c1=O`, the TGI in [1], in [2], in test [3], in [4], in test [5] and in test [6] was > 100 µM throughout. Moreover, the TGI in test [7], in [8], in test [9], in test [10] and in [11] was > 100 µM in each case.

As to `COc1cc(/C=C\C(=O)O)ccc1OCc1ccccc1`, the TGI in [1], in test [2], in [3], in test [4], in test [5] and in [6] was > 100 µM each time. In addition, the TGI in [7], in test [8], in test [9], in test [10] and in test [11] was > 100 µM each time.

On to `O=c1c(-c2ccc(Cl)cc2)nnc2n(Cc3ccccc3)c3ccccc3n12`, for which the TGI in test [1] is 44.9 µM; in [2], > 100 µM; in test [3] it was > 100 µM; in test [4] it was > 100 µM; in test [5] it was > 100 µM; in test [6] it was > 100 µM. The TGI in test [7] is > 100 µM; in test [8] it was 42.6 µM; in test [9] it was > 100 µM; in test [10] it was > 100 µM; in test [11], > 100 µM.

With `CC1(CNCc2ccccc2)CC(CCc2ccccc2)N(C(=O)c2ccc([N+](=O)[O-])cc2)C1Cc1ccc(O)cc1` (centres undefined), the TGI in test [1] is 31.1 µM; in test [2], 24.8 µM; in test [3], 26.3 µM; in [4], 23.1 µM; in test [5], 26.3 µM; in [6], > 100 µM. Also, the TGI in test [7] was 36.2 µM; in test [8] it was 9.88 µM; in test [9] it was 36 µM; in [10] it was 20.8 µM; in test [11] it was 27.1 µM.

As for `C=C1C(=O)O[C@@]23C1CC[C@@H](C)C2CC[C@@]1(C)OC31` (some centres undefined), the TGI is 39.3 µM in test [1]; > 100 µM in test [2]; 30.3 µM in [3]; 21.3 µM in [4]; 18.7 µM in [5]; 15.9 µM in test [6]. In addition, the TGI came to 45.7 µM in [7]; 24.2 µM in test [8]; 48.4 µM in test [9]; 21.5 µM in test [10]; 23.1 µM in [11].

As to `O=C(Nc1ccccc1C(=O)NCCCO)/C(=C/c1ccccc1O)NC(=O)c1ccccc1`, the TGI was > 56.5 µM in test [1]; > 100 µM in [2]; > 100 µM in test [3]; > 75.8 µM in test [4]; > 100 µM in test [5]; > 100 µM in test [6]. In addition, the TGI in test [7] was > 100 µM; in [8], > 100 µM; in test [9] it was 69.1 µM; in [10] it was > 100 µM; in test [11] it was > 100 µM.

Source of the values: PubChem BioAssay (NCI).
